Measured values: patent US7842808B2, “Anti-migraine spirocycles” (Bristol-Myers Squibb Company, priority 2002, dated 2010)

Assays:
[1] = molecular target: T1, human CGRP receptor (SK-N-MC cells) (Homo sapiens, UniProt O60894+Q16602); experiment: Cyclic AMP Assay, functional antagonism of CGRP-induced cyclic AMP formation; format: cell-based; conditions: SK-N-MC cells, 0.3 nM CGRP; read-out: cAMP Function IC50
T1 construct: SK-N-MC cells that endogenously express the human CGRP receptor; endogenous in cells; host or cells: SK-N-MC cells
Experimental: Functional Antagonism. Antagonism of the compounds of invention was determined by measuring the formation of cyclic AMP (adenosine 3′5′-cyclic monophosphate) in SK-N-MC cells that endogenously express the human CGRP receptor. […] For cyclic AMP measurements SK-N-MC cells were incubated with 0.3 nM CGRP alone or in the presence of various concentrations of the compounds of invention for 30 min at room temperature. […] Cyclic AMP was extracted using the lysis reagent and its concentration was determined by radioimmunoassay using RPA559 cAMP SPA Direct Screening Assay Kit (Amersham Pharmacia Biotech). IC50 values were calculated using Excel fit.

[2] = molecular target: T2, CGRP receptor (SK-N-MC cell membranes) (Homo sapiens, UniProt O60894+Q16602); experiment: CGRP Binding Assay ([125I]-CGRP radioligand binding, SK-N-MC homogenate); conditions: displacement of [125I]-CGRP, SK-N-MC homogenate; read-out: CGRP binding IC50
T2 construct: endogenous in cells; host or cells: SK-N-MC cells (membrane homogenate)

[3] = molecular target: T1, human CGRP receptor (SK-N-MC cells); experiment: Schild analysis of CGRP stimulated cAMP production; format: cell-based; conditions: for slope: Schild plot slope
Experimental: Functional Antagonism. Antagonism of the compounds of invention was determined by measuring the formation of cyclic AMP (adenosine 3′5′-cyclic monophosphate) in SK-N-MC cells that endogenously express the human CGRP receptor. CGRP receptor complex is coupled with Gs protein and CGRP binding to this complex leads to the cyclic AMP production via Gs—dependent activation of an adenylate cyclase (Juaneda C et al., TiPS, 2000; 21:432-438; incorporated by reference herein). Consequently, CGRP receptor antagonists inhibit CGRP-induced cyclic AMP formation in SK-N-MC cells (Doods H et al., Br J Pharmacol, 2000; 129(3):420-423); incorporated by reference herein). For cyclic AMP measurements SK-N-MC cells were incubated with 0.3 nM CGRP alone or in the presence of various concentrations of the compounds of invention for 30 min at room temperature. Compounds of invention were pre-incubated with SK-N-MC cells for 15 min before the addition of CGRP to allow receptor occupancy (Edvinsson et al., Eur J Pharmacol, 2001, 415:39-44; incorporated by reference herein). Cyclic AMP was extracted using the lysis reagent and its concentration was determined by radioimmunoassay using RPA559 cAMP SPA Direct Screening Assay Kit (Amersham Pharmacia Biotech). IC50 values were calculated using Excel fit.
Schild Analysis. Schild analysis can be used to characterize the nature of antagonism of the compounds of invention. The dose response of CGRP stimulated cAMP production was generated either with CGRP alone, or in the presence of various concentrations of compounds of invention. The antagonist dose is plotted as X against the dose ratio (defined as IC50 of agonist with the presence of the compounds divided by the IC50 of the agonist alone) minus 1 as Y. Linear regression was then performed with both X and Y axis log-transformed. […] Kb is the dissociation constant of the antagonist.

[4] = test system: human cerebral vessels (CGRP-induced dilation); experiment: Ex Vivo Human Cerebral Artery Assay, reversal of CGRP-induced relaxation; conditions: reversal of 1 nM hCGRP-induced relaxation, vessels pre-contracted with 10 mM KCl
Source text: Rationale and Overview. To provided direct evidence of the ability for novel compounds to reverse CGRP-induced dilation in human cerebral vessels, an ex vivo assay was design. Briefly, isolated vessel rings were mounted in a tissue bath where vessels were pre-contracted with potassium chloride (KCl) and fully dilated with hCGRP, then this relaxation was reversed by the cumulative addition of CGRP-receptor antagonists (complete details follow).
Tissue Samples. Autopsy samples of human arteries were obtained from vendors (ABS Inc. or NDRI). All vessels were transported on ice-cold HEPES buffer (composition in mM: NaCl 130, KCl 4, KH2PO4 1.2, MgSO4 1.2, CaCl2 1.8, Glucose 6, NaHCO3 4, HEPES 10, EDTA 0.025). Upon receipt, the vessels were placed in cold Kreb's buffer (composition in mM: NaCl 118.4, KCl 4.7, KH2PO4 1.2, MgSO4 1.2, CaCl2 1.8, Glucose 10.1, NaHCO3 25) saturated with carbogen (5% CO2 and 95% oxygen).
Isolated Tissue Baths. The vessels were cleaned of connective tissues and cut into cylindrical segments of 4-5 mm in length. The vessels were then mounted in tissue baths between two stainless steel hooks; one of which is fixed and the other of which was connected to a force displacement transducer. The vessel tension was continuously recorded using a data acquisition system (Powerlab, ADInstruments, Mountain View, Calif.) connected to the transducer. The tissue baths containing Krebs buffer and mounted vessels were temperature (37° C.) and pH (7.4) controlled with continuous bubbling of carbogen. The artery segments were allowed to equilibrate for about 30-45 min until a stable resting tone was achieved. Prior to the assay, vessels were primed (conditioned) with 100 mM KCl and subsequently washed. The vessels were pre-contracted with 10 mM KCl and fully dilated with 1 nM hCGRP. Concentration-response curves to CGRP-receptor antagonists were performed by the cumulative addition of drugs in half log units in fully dilated vessels. At each concentration, the effects of the drugs were expressed as % reversal of CGRP-induced relaxation in each vessel. The actual assay and data analysis were performed for each vessel individually, fitting the concentration-response data to a four parameter logistic function by non-linear regression analysis, to estimate the EC50 values.

T1 sequence (Q16602 23-461): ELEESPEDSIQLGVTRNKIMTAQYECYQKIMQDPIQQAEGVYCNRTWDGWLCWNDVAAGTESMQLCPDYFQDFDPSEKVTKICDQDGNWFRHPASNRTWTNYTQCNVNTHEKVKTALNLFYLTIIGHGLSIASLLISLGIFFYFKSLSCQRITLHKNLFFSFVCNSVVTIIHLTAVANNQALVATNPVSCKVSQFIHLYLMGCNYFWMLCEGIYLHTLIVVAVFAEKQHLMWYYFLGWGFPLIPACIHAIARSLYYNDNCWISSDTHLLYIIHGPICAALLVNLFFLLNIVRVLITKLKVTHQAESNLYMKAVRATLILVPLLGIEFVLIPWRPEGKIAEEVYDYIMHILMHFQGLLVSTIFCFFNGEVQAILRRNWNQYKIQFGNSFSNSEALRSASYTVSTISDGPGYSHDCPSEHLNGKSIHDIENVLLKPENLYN
T1 sequence (O60894 27-148): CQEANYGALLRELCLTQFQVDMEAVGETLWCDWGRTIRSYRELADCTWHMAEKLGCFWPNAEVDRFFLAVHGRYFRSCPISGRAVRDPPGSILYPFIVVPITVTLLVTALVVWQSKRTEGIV
T2 sequence (Q16602 23-461): as the sequence (Q16602 23-461) above
T2 sequence (O60894 27-148): as the sequence (O60894 27-148) above

Structure (SMILES) | IC50 [1] | IC50 [2] | Kb ([3]; Schild analysis, dissociation constant of the antagonist, read-out: Kb) | slope [3] | EC50 [4]
O=C(NC(Cc1ccc2[nH]ccc2c1)C(=O)N1CCC(N2CCCCC2)CC1)N1CCC(N2Cc3ccccc3NC2=O)CC1 (racemic) [Example 5, (±)-4-(2-Oxo-1,4-dihydro-2H-quinazolin-3-yl)-piperidine-1-carboxylic acid[2-[1,4′]bipiperidinyl-1′-yl-1-(1H-indol-5-ylmethyl)-2-oxo-ethyl]-amide] | < 10 nM | < 10 nM | 3 nM | 0.92 | 
Cc1cc(CC(NC(=O)N2CCC(N3Cc4ccccc4NC3=O)CC2)C(=O)N2CCN(C)CC2)cc2cn[nH]c12 (racemic) [Example 19, (±)-4-(2-Oxo-1,4-dihydro-2H-quinazolin-3-yl)-piperidine-1-carboxylic acid[1-(7-methyl-1H-indazol-5-ylmethyl)-2-(4-methyl-piperazin-1-yl)-2-oxo-ethyl]-amide] | < 10 nM | < 10 nM |  |  | < 10 nM
Cc1cc(CC(NC(=O)N2CCC(N3Cc4ccccc4NC3=O)CC2)C(=O)N2CCCC2)cc2cn[nH]c12 (racemic) [Example 20, (±)-4-(2-Oxo-1,4-dihydro-2H-quinazolin-3-yl)-piperidine-1-carboxylic acid[1-(7-methyl-1H-indazol-5-ylmethyl)-2-oxo-2-pyrrolidin-1-yl-ethyl]-amide] | < 10 nM | < 10 nM |  |  | < 10 nM
Cc1cc(CC(NC(=O)N2CCC3(CC2)NC(=O)Nc2ccccc23)C(=O)N2CCC(N3CCCCC3)CC2)cc2cn[nH]c12 (racemic) [Example 23, (±)-1-(7-Methyl-1H-indazol-5-ylmethyl)-2-[1,4-bipiperidin]-1-yl-2-oxoethyl]-2′,3′-dihydro-2′-oxospiro-[piperidine-4,4′-(1H)-quinazoline]-1-carboxamide] | < 10 nM | < 10 nM |  |  | < 10 nM
Cc1cc(CC(NC(=O)N2CCC3(CC2)OC(=O)Nc2ccccc23)C(=O)N2CCC(N3CCCCC3)CC2)cc2cn[nH]c12 (racemic) [Example 25, (±)-1-(7-Methyl-1H-indazol-5-ylmethyl)-2-[1,4-bipiperidin]-1-yl-2-oxoethyl]-1′,2′-dihydro-2′-oxospiro-[4H-3′,1-benzoxazine-4,4′-piperidine]-1-carboxamide] | < 10 nM | < 10 nM |  |  | < 10 nM
CCc1cc(CC(NC(=O)N2CCC(N3Cc4ccccc4NC3=O)CC2)C(=O)N2CCC(N3CCCCC3)CC2)cc2cn[nH]c12 (racemic) [Example 45, (±)-4-(2-Oxo-1,4-dihydro-2H-quinazolin-3-yl)-piperidine-1-carboxylic acid[2-[1,4′]bipiperidinyl-1′-yl-1-(7-ethyl-1H-indazol-5-ylmethyl)-2-oxo-ethyl]-amide] |  | < 10 nM |  | 1.4 | 
O=C(NC(CN1CCc2[nH]ncc2C1)C(=O)N1CCC(N2CCCCC2)CC1)N1CCC(N2Cc3ccccc3NC2=O)CC1 (racemic) [Example 54, (±)-4-(2-Oxo-1,4-dihydro-2H-quinazolin-3-yl)-piperidine-1-carboxylic acid[2-[1,4′]bipiperidinyl-1′-yl-2-oxo-1-(1,4,6,7-tetrahydro-pyrazolo[4,3-c]pyridin-5-ylmethyl)-ethyl]-amide] | 100 to 1000 nM | 10 to 100 nM |  |  | < 10 nM
COC(=O)C(CC(=O)N1CCC(N2Cc3ccccc3NC2=O)CC1)Cc1cc(C)c2[nH]ncc2c1 (racemic) [Example 67, (±)-2-(7-Methyl-1H-indazol-5-ylmethyl)-4-oxo-4-[4-(2-oxo-1,4-dihydro-2H-quinazolin-3-yl)-piperidin-1-yl]-butyric acid methyl ester] | 100 to 1000 nM | 10 to 100 nM |  |  | 10 to 100 nM
Cc1cc(CC(CC(=O)N2CCC3(CC2)OC(=O)Nc2ccccc23)C(=O)N2CCC(N3CCCCC3)CC2)cc2cn[nH]c12 (racemic) [Example 68, (±)-1-[1,4′]Bipiperidinyl-1′-yl-2-(7-methyl-1H-indazol-5-ylmethyl)-4-[1′,2′-dihydro-2′-oxospiro-[4H-3′,1-benzoxazine-4,4′-piperidinyl]-butane-1,4-dione] | < 10 nM | < 10 nM |  |  | < 10 nM
Cc1cc(CC(CC(=O)N2CCC(N3Cc4ccccc4NC3=O)CC2)C(=O)N(C)C)cc2cn[nH]c12 (racemic) [Example 72, (±)-N,N-Dimethyl-2-(7-methyl-1H-indazol-5-ylmethyl)-4-oxo-4-[4-(2-oxo-1,4-dihydro-2H-quinazolin-3-yl)-piperidin-1-yl]-butyramide] | < 10 nM | < 10 nM |  |  | < 10 nM
Cc1cc(CC(CC(=O)N2CCC(N3Cc4ccccc4NC3=O)CC2)C(=O)N2CCC(C)CC2)cc2cn[nH]c12 (racemic) [Example 74, (±)-2-(7-Methyl-1H-indazol-5-ylmethyl)-1-(4-methyl-piperidin-1-yl)-4-[4-(2-oxo-1,4-dihydro-2H-quinazolin-3-yl)-piperidin-1-yl]-butane-1,4-dione] | < 10 nM | < 10 nM |  |  | < 10 nM
Cc1cc(CC(CC(=O)N2CCC3(CC2)OC(=O)Nc2ccccc23)C(=O)N(C)C)cc2cn[nH]c12 (racemic) [Example 76, (±)-N,N-Dimethyl-2-(7-methyl-1H-indazol-5-ylmethyl)-4-oxo-4-[1′,2′-dihydro-2′-oxospiro-[4H-3′,1-benzoxazine-4,4′-piperidinyl]-butyramide] | 10 to 100 nM | 10 to 100 nM |  |  | < 10 nM
O=C1Nc2ccccc2C2(CCN(C(=O)N[C@H](Cc3csc4ccccc34)C(=O)N3CCC(N4CCCCC4)CC3)CC2)O1 [Example 64, N-[(1R)-1-(Benzo[b]thien-3-ylmethyl)-2-[1,4′-bipiperidin]-1′-yl-2-oxoethyl]-1,2-dihydro-2-oxospiro-[4H-3,1-benzoxazine-4,4′-piperidine]-1′-carboxamide] |  | 10 to 100 nM |  |  | 10 to 100 nM
O=C1Nc2ccccc2C2(CCN(C(=O)C[C@H](Cc3csc4ccccc34)C(=O)N3CCC(N4CCCCC4)CC3)CC2)O1 [Example 65] | 10 to 100 nM | < 10 nM |  |  | 10 to 100 nM
O=C(C[C@H](Nc1ccc2[nH]ccc2c1)C(=O)N1CCC(N2CCCCC2)CC1)N1CCC(N2Cc3ccccc3NC2=O)CC1 [Example 86, (L)-1-[1,4′]Bipiperidinyl-1′-yl-2-(1H-indol-5-ylamino)-4-[4-(2-oxo-1,4-dihydro-2H-quinazolin-3-yl)-piperidin-1-yl]-butane-1,4-dione] | 10 to 100 nM | 100 to 1000 nM |  |  | 100 to 1000 nM
